Drawing on patent US9409884B2 (Rigel Pharmaceuticals, Inc., priority 2012, dated 2016), this text covers EC50 for 31 compounds.

In general, EC50 refers to the concentration giving half of the maximal effect. Low readings indicate an effect from little substance, high ones a need for much substance.

Some results are limits rather than exact numbers.

The target in the experiment is AMPK. Kind of experiment: AMPK activation, enzyme-linked immunosorbent assay. It is filed as biochemical. The note with it: Table 8, compounds of Table 1. The gist of the method: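 AMPK activation by test compounds was measured by enzyme-linked immunosorbent assay.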
With `Cc1c(C(=O)NC2CCNCC2)oc2cc(OC3CCN(c4ccc(C(F)(F)F)cc4)CC3)ccc12` [Compound 1-62, 3-methyl-N-(piperidin-4-yl)-6-(1-(4-(trifluoromethyl)phenyl)piperidin-4-yloxy)benzofuran-2-carboxamide], the EC50 fell in the range of 5000 to 10000 nM. On to `Cc1c(C(=O)NC2CCN(Cc3ccc(F)cc3)CC2)oc2cc(OC3CCN(c4ccc(C(F)(F)F)cc4)CC3)ccc12` [Compound 1-63, N-(1-(4-fluorobenzyl)piperidin-4-yl)-3-methyl-6-(1-(4-(trifluoromethyl)phenyl)piperidin-4-yloxy)benzofuran-2-carboxamide], for which the EC50 was less than 100 nM. Consider `Cc1c(C(=O)NC2CCN(Cc3ccc(C#N)cc3)CC2)oc2cc(OC3CCN(c4ccc(C(F)(F)F)cc4)CC3)ccc12` [Compound 1-64, N-(1-(4-cyanobenzyl)piperidin-4-yl)-3-methyl-6-(1-(4-(trifluoromethyl)phenyl)piperidin-4-yloxy)benzofuran-2-carboxamide], for which the EC50 is less than 100 nM. Consider `Cc1c(C(=O)NC2CCN(Cc3ccncc3)CC2)oc2cc(OC3CCN(c4ccc(C(F)(F)F)cc4)CC3)ccc12` [Compound 1-65, 3-methyl-N-(1-(pyridin-4-ylmethyl)piperidin-4-yl)-6-(1-(4-(trifluoromethyl)phenyl)piperidin-4-yloxy)benzofuran-2-carboxamide], for which the EC50 was less than 100 nM. In the case of `Cc1c(C(=O)NC2CCN(Cc3cccc(C#N)c3)CC2)oc2cc(OC3CCN(c4ccc(C(F)(F)F)cc4)CC3)ccc12` [Compound 1-66, N-(1-(3-cyanobenzyl)piperidin-4-yl)-3-methyl-6-(1-(4-(trifluoromethyl)phenyl)piperidin-4-yloxy)benzofuran-2-carboxamide], the EC50 was less than 100 nM. For `Cc1c(C(=O)NC2CCN(Cc3ccccc3C#N)CC2)oc2cc(OC3CCN(c4ccc(C(F)(F)F)cc4)CC3)ccc12` [Compound 1-67, N-(1-(2-cyanobenzyl)piperidin-4-yl)-3-methyl-6-(1-(4-(trifluoromethyl)phenyl)piperidin-4-yloxy)benzofuran-2-carboxamide], the EC50 was less than 100 nM. Compound `Cc1c(C(=O)NC2CCN(Cc3ccccn3)CC2)oc2cc(OC3CCN(c4ccc(C(F)(F)F)cc4)CC3)ccc12` [Compound 1-68, 3-methyl-N-(1-(pyridin-2-ylmethyl)piperidin-4-yl)-6-(1-(4-(trifluoromethyl)phenyl)piperidin-4-yloxy)benzofuran-2-carboxamide] gave an EC50 of less than 100 nM. Take `Cc1c(C(=O)NC2CCN(Cc3cccnc3)CC2)oc2cc(OC3CCN(c4ccc(C(F)(F)F)cc4)CC3)ccc12` [Compound 1-69, 3-methyl-N-(1-(pyridin-3-ylmethyl)piperidin-4-yl)-6-(1-(4-(trifluoromethyl)phenyl)piperidin-4-yloxy)benzofuran-2-carboxamide]: the EC50 was less than 100 nM. Regarding `N#Cc1ccc(CN2CCC(Oc3ccc4oc(C(=O)NC5CCN(Cc6ccccc6)CC5)cc4c3)CC2)cc1` [Compound 1-70, N-(1-benzylpiperidin-4-yl)-5-(1-(4-cyanobenzyl)piperidin-4-yloxy)benzofuran-2-carboxamide], the EC50 is less than 100 nM.

`N#Cc1ccc(N2CCC(Oc3ccc4oc(C(=O)NC5CCN(Cc6ccccc6)CC5)cc4c3)CC2)cc1` [Compound 1-71, N-(1-benzylpiperidin-4-yl)-5-(1-(4-cyanophenyl)piperidin-4-yloxy)benzofuran-2-carboxamide] yielded an EC50 of less than 100 nM. As for `O=C(NC1CCN(Cc2ccccc2)CC1)c1cc2cc(OC3CCN(Cc4ccc(Cl)cc4)CC3)ccc2o1` [Compound 1-72, N-(1-benzylpiperidin-4-yl)-5-(1-(4-chlorobenzyl)piperidin-4-yloxy)benzofuran-2-carboxamide], the EC50 lay in the range of 100 to 500 nM.

As to `O=C(NC1CCN(Cc2ccccc2)CC1)c1cc2cc(OC3CCN(Cc4cccc(C(F)(F)F)c4)CC3)ccc2o1` [Compound 1-73, N-(1-benzylpiperidin-4-yl)-5-(1-(3-(trifluoromethyl)benzyl)piperidin-4-yloxy)benzofuran-2-carboxamide], the EC50 lay in the range of 500 to 1000 nM. `O=C(NC1CCN(Cc2ccccc2)CC1)c1cc2cc(OC3CCN(Cc4ccc(F)c(F)c4)CC3)ccc2o1` [Compound 1-74, N-(1-benzylpiperidin-4-yl)-5-(1-(3,4-difluorobenzyl)piperidin-4-yloxy)benzofuran-2-carboxamide] returned an EC50 of 100 to 500 nM. Compound `O=C(NC1CCN(Cc2ccccc2)CC1)c1cc2cc(OC3CCN(c4ccc(C(F)(F)F)cc4)CC3)ccc2o1` [Compound 1-75, N-(1-benzylpiperidin-4-yl)-5-(1-(4-(trifluoromethyl)phenyl)piperidin-4-yloxy)benzofuran-2-carboxamide] returned an EC50 of less than 100 nM. As to `O=C(NC1CCN(Cc2ccncc2)CC1)c1cc2cc(OC3CCN(c4ccc(C(F)(F)F)cc4)CC3)ccc2o1` [Compound 1-76, N-(1-(pyridin-4-ylmethyl)piperidin-4-yl)-5-(1-(4-(trifluoromethyl)phenyl)piperidin-4-yloxy)benzofuran-2-carboxamide], the EC50 was 100 to 500 nM. `O=C(NC1CCN(Cc2ccncc2)CC1)c1cc2cc(OC3CCN(Cc4ccc(Cl)cc4)CC3)ccc2o1` [Compound 1-77, 5-(1-(4-chlorobenzyl)piperidin-4-yloxy)-N-(1-(pyridin-4-ylmethyl)piperidin-4-yl)benzofuran-2-carboxamide] showed an EC50 of 100 to 500 nM. `O=C(NC1CCN(Cc2ccncc2)CC1)c1cc2cc(OC3CCN(c4ccc(OC(F)(F)F)cc4)CC3)ccc2o1` [Compound 1-78, N-(1-(pyridin-4-ylmethyl)piperidin-4-yl)-5-(1-(4-(trifluoromethoxy)phenyl)piperidin-4-yloxy)benzofuran-2-carboxamide] registered an EC50 of less than 100 nM. `N#Cc1ccc(CN2CCC(Oc3ccc4oc(C(=O)NC5CCN(Cc6ccncc6)CC5)cc4c3)CC2)cc1` [Compound 1-79, 5-(1-(4-cyanobenzyl)piperidin-4-yloxy)-N-(1-(pyridin-4-ylmethyl)piperidin-4-yl)benzofuran-2-carboxamide] showed a 50% effective concentration (EC50) of 100 to 500 nM. Consider `O=C(NC1CCN(Cc2ccccc2)CC1)c1cc2cc(OC3CCN(c4ccc(OC(F)(F)F)cc4)CC3)ccc2o1` [Compound 1-80, N-(1-benzylpiperidin-4-yl)-5-(1-(4-(trifluoromethoxy)phenyl)piperidin-4-yloxy)benzofuran-2-carboxamide], for which the EC50 was less than 100 nM.

For the compound `CC(C)(C)OC(=O)N1CCC(NC(=O)c2cc3ccc(OC4CCN(c5ccc(OC(F)(F)F)cc5)CC4)cc3o2)CC1` [Compound 1-81, tert-butyl 4-(6-(1-(4-(trifluoromethoxy)phenyl)piperidin-4-yloxy)benzofuran-2-carboxamido) piperidine-1-carboxylate], the EC50 lay in the range of 100 to 500 nM. `CC(C)(C)OC(=O)N1CCC(NC(=O)c2cc3ccc(OC4CCN(c5ccc(C(F)(F)F)cc5)CC4)cc3o2)CC1` [Compound 1-82, tert-butyl 4-(6-(1-(4-(trifluoromethyl)phenyl)piperidin-4-yloxy)benzofuran-2-carboxamido) piperidine-1-carboxylate] showed an EC50 of 100 to 500 nM. As to `O=C(NC1CCNCC1)c1cc2ccc(OC3CCN(c4ccc(OC(F)(F)F)cc4)CC3)cc2o1` [Compound 1-83, N-(piperidin-4-yl)-6-(1-(4-(trifluoromethoxy)phenyl)piperidin-4-yloxy)benzofuran-2-carboxamide], the EC50 lay in the range of 100 to 500 nM. Regarding `O=C(NC1CCNCC1)c1cc2ccc(OC3CCN(c4ccc(C(F)(F)F)cc4)CC3)cc2o1` [Compound 1-84, N-(piperidin-4-yl)-6-(1-(4-(trifluoromethyl)phenyl)piperidin-4-yloxy)benzofuran-2-carboxamide], the EC50 lay within 5000 to 10000 nM.

On to `CC(C)(C)OC(=O)N1CCC(NC(=O)c2cc3cc(OC4CCN(c5ccc(C(F)(F)F)cc5)CC4)ccc3o2)CC1` [Compound 1-85, tert-butyl 4-(5-(1-(4-(trifluoromethyl)phenyl)piperidin-4-yloxy)benzofuran-2-carboxamido) piperidine-1-carboxylate], for which the EC50 lay in the range of 500 to 1000 nM. With `O=C(NC1CCNCC1)c1cc2cc(OC3CCN(c4ccc(C(F)(F)F)cc4)CC3)ccc2o1` [Compound 1-86, N-(piperidin-4-yl)-5-(1-(4-(trifluoromethyl)phenyl)piperidin-4-yloxy)benzofuran-2-carboxamide] the figure was greater than 10000 nM; with `O=C(NC1CCN(Cc2ccncc2)CC1)c1cc2ccc(OC3CCN(c4ccc(C(F)(F)F)cc4)CC3)cc2o1` [Compound 1-87, N-(1-(pyridin-4-ylmethyl)piperidin-4-yl)-6-(1-(4-(trifluoromethyl)phenyl)piperidin-4-yloxy)benzofuran-2-carboxamide], less than 100 nM; with `O=C(NC1CCN(Cc2ccncc2)CC1)c1cc2ccc(OC3CCN(c4ccc(OC(F)(F)F)cc4)CC3)cc2o1` [Compound 1-88, N-(1-(pyridin-4-ylmethyl)piperidin-4-yl)-6-(1-(4-(trifluoromethoxy)phenyl)piperidin-4-yloxy)benzofuran-2-carboxamide], less than 100 nM.

`N#Cc1ccc(CN2CCC(NC(=O)c3cc4ccc(OC5CCN(c6ccc(OC(F)(F)F)cc6)CC5)cc4o3)CC2)cc1` [Compound 1-89, N-(1-(4-cyanobenzyl)piperidin-4-yl)-6-(1-(4-(trifluoromethoxy)phenyl)piperidin-4-yloxy)benzofuran-2-carboxamide] returned an EC50 of less than 100 nM.

Compound `N#Cc1ccc(CN2CCC(NC(=O)c3cc4ccc(OC5CCN(c6ccc(C(F)(F)F)cc6)CC5)cc4o3)CC2)cc1` [Compound 1-90, N-(1-(4-cyanobenzyl)piperidin-4-yl)-6-(1-(4-(trifluoromethyl)phenyl)piperidin-4-yloxy)benzofuran-2-carboxamide] registered an EC50 of less than 100 nM.

The compound `O=C(NC1CCN(Cc2ccc(F)cc2)CC1)c1cc2ccc(OC3CCN(c4ccc(C(F)(F)F)cc4)CC3)cc2o1` [Compound 1-91, N-(1-(4-fluorobenzyl)piperidin-4-yl)-6-(1-(4-(trifluoromethyl)phenyl)piperidin-4-yloxy)benzofuran-2-carboxamide] gave an EC50 greater than 10000 nM. In the case of `O=C(NC1CCN(Cc2ccccn2)CC1)c1cc2ccc(OC3CCN(c4ccc(OC(F)(F)F)cc4)CC3)cc2o1` [Compound 1-92, N-(1-(pyridin-2-ylmethyl)piperidin-4-yl)-6-(1-(4-(trifluoromethoxy)phenyl)piperidin-4-yloxy)benzofuran-2-carboxamide], the EC50 lay within 500 to 1000 nM.
